From ChEMBL document CHEMBL5500389, “Discovery of the Selective and Orally Available Galectin-1 Inhibitor GB1908 as a Potential Treatment for Lung Cancer” (J Med Chem, 2024)
Blank lines part the entries; values can stand above or below the compound they belong to. Activity calls are given as the source filed them. The calls are words filed in the database; no cut-off is given here.

Key:
Galectin-1 [1] = biological target: T1, Galectin-1 (Homo sapiens, UniProt P09382); assay: Binding affinity to human galectin-1 assessed as dissociation constant by competitive fluorescence polarization assay
T1 sequence (P09382 whole entry): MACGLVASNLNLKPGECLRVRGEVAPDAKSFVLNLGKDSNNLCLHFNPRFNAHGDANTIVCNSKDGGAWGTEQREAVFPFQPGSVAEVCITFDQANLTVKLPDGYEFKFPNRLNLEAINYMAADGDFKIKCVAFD

Galectin-3 [2] = biological target: T2, Galectin-3 (Homo sapiens, UniProt P17931); assay: Binding affinity to human galectin-3 assessed as dissociation constant by competitive fluorescence polarization assay
T2 sequence (P17931 whole entry): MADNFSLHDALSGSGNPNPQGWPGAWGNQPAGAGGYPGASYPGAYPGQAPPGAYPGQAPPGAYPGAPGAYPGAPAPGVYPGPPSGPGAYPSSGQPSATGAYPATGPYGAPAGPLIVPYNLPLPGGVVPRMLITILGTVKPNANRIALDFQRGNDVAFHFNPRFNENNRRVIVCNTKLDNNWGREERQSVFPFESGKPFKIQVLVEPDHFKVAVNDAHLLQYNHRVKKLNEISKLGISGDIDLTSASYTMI

Galectin-3 [3] = biological target: T3, Galectin-3 (Mus musculus, UniProt P16110); assay: Binding affinity to mouse galectin-3 assessed as dissociation constant by competitive fluorescence polarization assay
T3 sequence (P16110 whole entry): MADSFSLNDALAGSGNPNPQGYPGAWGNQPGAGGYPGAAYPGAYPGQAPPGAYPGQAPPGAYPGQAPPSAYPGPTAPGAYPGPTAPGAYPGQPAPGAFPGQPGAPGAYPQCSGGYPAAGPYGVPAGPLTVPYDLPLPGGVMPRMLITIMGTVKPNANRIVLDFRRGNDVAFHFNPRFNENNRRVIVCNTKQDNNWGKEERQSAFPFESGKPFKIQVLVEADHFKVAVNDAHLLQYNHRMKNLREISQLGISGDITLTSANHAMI

[4] = Efflux ratio of apparent permeability across apical to basal side over basal to apical side in human Caco-2 cells at 10 uM incubated for 90 mins by LC-MS/MS analysis
[5] = Apparent permeability across apical to basal side in human Caco-2 cells at 10 uM incubated for 90 mins by LC-MS/MS analysis
[6] = Stability in mouse hepatocytes assessed as hepatic intrinsic clearance at 2 uM measured per million cells for 15 to 120 mins by LC-MS/MS analysis; type: ADME, cell-based, Hepatocyte; details: time 15-120 min, read-out: CLH
physchem = details: octanol/potassium phosphate buffer, pH 7.4
Galectin-1 [7] = biological target: T4, Galectin-1 (Mus musculus, UniProt P16045); assay: Binding affinity to mouse galectin-1 assessed as dissociation constant by fluorescein probe based fluorescence polarization assay
T4 sequence (P16045 whole entry): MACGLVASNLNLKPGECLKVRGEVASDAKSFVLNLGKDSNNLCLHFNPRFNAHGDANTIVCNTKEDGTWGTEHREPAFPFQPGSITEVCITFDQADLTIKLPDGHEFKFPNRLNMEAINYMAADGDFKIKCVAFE

[8] = Apparent permeability across basal to apical side in human Caco-2 cells at 10 uM incubated for 90 mins by LC-MS/MS analysis
Galectin-1 [9] = biological target: T1, Galectin-1; assay: Binding affinity to human galectin-1 assessed as dissociation constant by fluorescein probe based fluorescence polarization assay
[10] = Stability in human hepatocytes assessed as hepatic intrinsic clearance at 2 uM measured per million cells for 15 to 120 mins by LC-MS/MS analysis; type: ADME, cell-based, Hepatocyte; details: time 15-120 min, read-out: CLH
Galectin-3 [11] = biological target: T3, Galectin-3; assay: Binding affinity to mouse galectin-3 assessed as dissociation constant by fluorescein probe based fluorescence polarization assay
[12] = AUC (infinity) in C57BL/6 mouse at 30 mg/kg, po measured for 24 hrs by HPLC analysis; type: ADME, organism-based; details: in vivo
Galectin-8 [13] = biological target: T5, Galectin-8 (Homo sapiens, UniProt O00214); assay: Inhibition of N-terminal human galectin-8 by competitive fluorescence polarization assay
T5 sequence (O00214 whole entry): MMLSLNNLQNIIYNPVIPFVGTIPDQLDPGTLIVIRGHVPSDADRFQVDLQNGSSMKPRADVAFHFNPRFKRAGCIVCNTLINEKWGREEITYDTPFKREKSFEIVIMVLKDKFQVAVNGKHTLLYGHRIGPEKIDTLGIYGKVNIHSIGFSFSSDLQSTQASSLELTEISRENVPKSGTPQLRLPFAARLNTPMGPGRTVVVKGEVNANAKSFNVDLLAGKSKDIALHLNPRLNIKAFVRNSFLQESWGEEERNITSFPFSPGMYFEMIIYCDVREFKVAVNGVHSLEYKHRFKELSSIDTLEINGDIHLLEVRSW

Lewis lung carcinoma [14] = assay: Antitumor activity against mouse LL2 cells allografted in syngeneic mouse C57BL/6N assessed as inhibition of tumor growth at 30 mg/kg, po bid administered via gavage measured for 3 to 21 days; type: functional, organism-based; details: time 3-21 day
[15] = Volume of distribution at steady state in C57BL/6 mouse at 1 mg/kg, iv measured for 24 hrs by HPLC analysis; type: ADME, organism-based; details: in vivo, read-out: Vdss
Galectin-3 [16] = biological target: T2, Galectin-3; assay: Inhibition of human galectin-3 by competitive fluorescence polarization assay
[17] = Unbound fraction in human plasma at 1 uM incubated for 5 hrs by equilibrium dialysis method; type: ADME, cell-free
Galectin-9 [18] = biological target: T6, Galectin-9 (Homo sapiens, UniProt O00182); assay: Inhibition of C-terminal human galectin-9 by competitive fluorescence polarization assay
T6 sequence (O00182 whole entry): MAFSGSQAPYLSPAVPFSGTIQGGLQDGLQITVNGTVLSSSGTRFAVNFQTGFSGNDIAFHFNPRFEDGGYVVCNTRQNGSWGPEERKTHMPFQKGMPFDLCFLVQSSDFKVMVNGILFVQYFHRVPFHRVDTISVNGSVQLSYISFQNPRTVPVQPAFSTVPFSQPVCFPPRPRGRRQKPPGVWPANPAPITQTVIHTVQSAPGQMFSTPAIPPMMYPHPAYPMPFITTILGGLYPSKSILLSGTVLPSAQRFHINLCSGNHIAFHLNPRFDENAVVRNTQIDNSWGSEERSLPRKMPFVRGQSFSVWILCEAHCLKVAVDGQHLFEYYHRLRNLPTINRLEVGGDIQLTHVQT

[19] = Oral bioavailability in C57BL/6 mouse at 30 mg/kg measured for 24 hrs by HPLC analysis; type: ADME, organism-based; details: in vivo
Galectin-1 [20] = biological target: T4, Galectin-1; assay: Binding affinity to CM3 chip-immobilized full-length mouse galectin-1 assessed as dissociation constant by SPR analysis
Galectin-4 [21] = biological target: T7, Galectin-4 (Homo sapiens, UniProt P56470); assay: Inhibition of N-terminal human galectin-4 by competitive fluorescence polarization assay
T7 sequence (P56470 whole entry): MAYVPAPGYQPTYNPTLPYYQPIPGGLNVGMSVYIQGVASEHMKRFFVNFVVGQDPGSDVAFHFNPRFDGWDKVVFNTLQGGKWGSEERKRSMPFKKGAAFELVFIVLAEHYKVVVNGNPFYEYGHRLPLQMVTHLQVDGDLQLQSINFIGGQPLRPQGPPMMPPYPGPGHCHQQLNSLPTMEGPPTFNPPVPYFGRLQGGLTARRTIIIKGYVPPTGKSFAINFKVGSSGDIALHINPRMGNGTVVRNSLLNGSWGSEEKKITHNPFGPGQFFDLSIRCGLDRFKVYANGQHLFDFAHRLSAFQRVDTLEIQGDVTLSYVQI

Galectin-8 [22] = biological target: T5, Galectin-8; assay: Inhibition of C-terminal human galectin-8 by competitive fluorescence polarization assay
Galectin-3 [23] = biological target: T2, Galectin-3; assay: Binding affinity to CM3 chip-immobilized full-length human galectin-3 assessed as dissociation constant by SPR analysis
[24] = Unbound fraction in mouse plasma at 1 uM incubated for 5 hrs by equilibrium dialysis method; type: ADME, cell-free
Jurkat [25] = assay: Inhibition of apoptosis in galectin-1-induced human Jurkat cells measured after 16 hrs by caspase-3/7 green fluorescence based analysis
Galectin-4 [26] = biological target: T7, Galectin-4; assay: Inhibition of C-terminal human galectin-4 by competitive fluorescence polarization assay
Galectin-9 [27] = biological target: T6, Galectin-9; assay: Inhibition of N-terminal human galectin-9 by competitive fluorescence polarization assay
[28] = Cmax in C57BL/6 mouse at 30 mg/kg, po measured for 24 hrs by HPLC analysis; type: ADME, organism-based; details: in vivo
Jurkat [29] = assay: Inhibition of apoptosis in galectin-3-induced human Jurkat cells measured after 16 hrs by caspase-3/7 green fluorescence based analysis
[30] = Tmax in C57BL/6 mouse at 30 mg/kg, po measured for 24 hrs by HPLC analysis; type: ADME, organism-based; details: in vivo
Galectin-7 = Galectin-7 (Homo sapiens, UniProt P47929); assay: Inhibition of human galectin-7 by competitive fluorescence polarization assay
Chain of Galectin-7 (P47929 whole entry): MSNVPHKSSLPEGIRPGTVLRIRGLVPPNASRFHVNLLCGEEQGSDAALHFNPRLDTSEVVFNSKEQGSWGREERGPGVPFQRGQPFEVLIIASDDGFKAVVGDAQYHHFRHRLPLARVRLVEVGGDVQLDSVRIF

Galectin-1 [31] = biological target: T1, Galectin-1; assay: Binding affinity to CM3 chip-immobilized full-length human galectin-1 assessed as dissociation constant by SPR analysis
[32] = Clearance in C57BL/6 mouse at 1 mg/kg, iv measured for 24 hrs by HPLC analysis; type: ADME, organism-based; details: in vivo
A549 = assay: Cytotoxicity against human A549 cells assessed as reduction in cell viability at >90 uM by MTT assay relative to control; type: functional
Lewis lung carcinoma [33] = assay: Antitumor activity against mouse LL2 cells allografted in syngeneic mouse C57BL/6N assessed as reduction in tumor volume at 30 mg/kg, po bid administered via gavage measured after 10 days; type: functional, organism-based; details: time 10.0 day
Galectin-3 [34] = biological target: T3, Galectin-3; assay: Binding affinity to CM3 chip-immobilized full-length mouse galectin-3 assessed as dissociation constant by SPR analysis

SMILES: OC[C@H]1O[C@@H](S[C@@H]2O[C@H](CO)[C@H](O)[C@H](n3cc(-c4csc(O)n4)nn3)[C@H]2O)[C@H](O)[C@@H](n2cc(-c3cc(F)c(F)c(F)c3)nn2)[C@H]1O
Kd (Galectin-1 [1]): 4 nM
Kd (Galectin-3 [2]): 1 nM
Kd (Galectin-3 [3]): 34 nM

SMILES: CO[C@@H]1[C@@H](n2cc(-c3nccs3)nn2)[C@@H](O)[C@@H](CO)O[C@@H]1Sc1cc(Cl)c(F)c(Cl)c1
efflux ratio at 1.5 h, 10 µM [4]: 1.4
Papp A→B at 1.5 h, 10 µM [5]: 20 ×10⁻⁶ cm/s
hepatocyte CLint at 2 µM [6]: < 1.5 µL/min/1e6 cells
logD at 1 h (physchem): 3.7
Kd (Galectin-1 [7]): 160 nM
Papp B→A at 1.5 h, 10 µM [8]: 28 ×10⁻⁶ cm/s
Kd (Galectin-1 [9]): 145 nM
hepatocyte CLint at 2 µM [10]: 4.4 µL/min/1e6 cells

SMILES: OC[C@H]1O[C@H](Sc2cc(Cl)c(F)c(Cl)c2)[C@H](O)[C@@H](n2cc(-c3nccs3)nn2)[C@H]1O
efflux ratio at 1.5 h, 10 µM [4]: 2.8

SMILES: CO[C@@H]1[C@@H](n2cc(-c3csc(O)n3)nn2)[C@@H](O)[C@@H](CO)O[C@@H]1Sc1ccc(Cl)c(Cl)c1
Kd (Galectin-3 [11]): 4200 nM
AUC(0-inf) [12]: 148 µg·h/mL
Kd (Galectin-8 [13]): 80600 nM
Papp A→B at 1.5 h, 10 µM [5]: 4 ×10⁻⁶ cm/s
inhibition (Lewis lung carcinoma [14]): Active
Vd [15]: 0.4 L/kg
Kd (Galectin-3 [16]): 6000 nM
fraction unbound at 5 h, 1 µM [17]: 0.005
hepatocyte CLint at 2 µM [6]: < 1.5 µL/min/1e6 cells
Kd (Galectin-9 [18]): 17500 nM
bioavailability [19]: > 99.9%
Kd (Galectin-1 [20]): 90 nM
Kd (Galectin-4 [21]): 15000 nM
Kd (Galectin-8 [22]): 92400 nM
Kd (Galectin-3 [23]): 20500 nM
fraction unbound at 5 h, 1 µM [24]: 0.007
IC50 (Jurkat [25]): 850 nM
logD at 1 h (physchem): 3.2
Kd (Galectin-1 [7]): 72 nM
Kd (Galectin-4 [26]): 460 nM
Kd (Galectin-9 [27]): 18600 nM
Cmax [28]: 19500 ng/mL
IC50 (Jurkat [29]): > 8000 nM
Tmax [30]: 2 h
Papp B→A at 1.5 h, 10 µM [8]: 48 ×10⁻⁶ cm/s
Kd (Galectin-7): 92700 nM
Kd (Galectin-1 [31]): 80 nM
clearance [32]: 3.7 mL/min/kg
Activity (A549): 48%
Activity (Lewis lung carcinoma [33]): Active
hepatocyte CLint at 2 µM [10]: < 1.5 µL/min/1e6 cells
Kd (Galectin-3 [34]): 8200 nM

Further lines, results first:

efflux ratio at 1.5 h, 10 µM [4]: 63
Papp A→B at 1.5 h, 10 µM [5]: 0.9 ×10⁻⁶ cm/s
hepatocyte CLint at 2 µM [6]: < 1.5 µL/min/1e6 cells
logD at 1 h (physchem): 3.3
Kd (Galectin-1 [7]): 43 nM
Papp B→A at 1.5 h, 10 µM [8]: 57 ×10⁻⁶ cm/s
Kd (Galectin-1 [9]): 34 nM
hepatocyte CLint at 2 µM [10]: 2.5 µL/min/1e6 cells
SMILES: CO[C@@H]1[C@@H](n2cc(-c3csc(O)n3)nn2)[C@@H](O)[C@@H](CO)O[C@@H]1Sc1cc(Cl)c(F)c(Cl)c1

efflux ratio at 1.5 h, 10 µM [4]: 87
Papp A→B at 1.5 h, 10 µM [5]: 0.6 ×10⁻⁶ cm/s
logD at 1 h (physchem): 3.8
Papp B→A at 1.5 h, 10 µM [8]: 52 ×10⁻⁶ cm/s
Kd (Galectin-1 [9]): 3430 nM
SMILES: CN(C)c1nc(-c2cn([C@@H]3[C@@H](O)[C@@H](Sc4cc(Cl)c(F)c(Cl)c4)O[C@H](CO)[C@@H]3O)nn2)cs1

efflux ratio at 1.5 h, 10 µM [4]: 117
Papp A→B at 1.5 h, 10 µM [5]: 0.3 ×10⁻⁶ cm/s
logD at 1 h (physchem): 2.8
Papp B→A at 1.5 h, 10 µM [8]: 35 ×10⁻⁶ cm/s
Kd (Galectin-1 [9]): 80 nM
SMILES: OC[C@H]1O[C@H](Sc2cc(Cl)c(F)c(Cl)c2)[C@H](O)[C@@H](n2cc(-c3csc(O)n3)nn2)[C@H]1O
